Values after ≈ are worked out from the molar mass of the structure shown. Active and inactive are the calls of the source. No cut-off for these calls is given here.
What was measured:
[1] = system: Acinetobacter baumannii; experiment: Antibacterial activity against Acinetobacter baumannii ATCC19606 assessed as bacterial growth inhibition incubated for 18 to 20 hrs by microbroth dilution method; type: functional; details: time 18-20 hrs
[2] = Cytotoxicity against GFP fused human MT4 cells cultured under serum free condition for 24 hrs by CellTiter-Glo assay; type: toxicity, cell-based; details: GFP fused MT4 cells
[3] = system: Acinetobacter baumannii; experiment: Antibacterial activity against Acinetobacter baumannii ATCC19606 incubated for 18 to 20 hrs in presence of 1% of human serum by microbroth dilution method; type: functional; details: time 18-20 hrs
[4] = system: Acinetobacter baumannii; experiment: Selectivity ratio of MIC95 for antibacterial activity against Acinetobacter baumannii ATCC19606 in the presence of 1% human serum to MIC95 for antibacterial activity against Acinetobacter baumannii ATCC19606; type: functional
[5] = Inhibition of wildtype Acinetobacter baumannii MsbA preincubated for 30 mins followed by ATP addition and measured after 1 hrs by Transcreener ADP2 F1 assay
[6] = system: Acinetobacter baumannii; experiment: Selectivity ratio of MIC95 for antibacterial activity against Acinetobacter baumannii ATCC19606 in the presence of 10% human serum to MIC95 for antibacterial activity against Acinetobacter baumannii ATCC19606; type: functional
[7] = system: Acinetobacter baumannii; experiment: Antibacterial activity against Acinetobacter baumannii ATCC19606 incubated for 18 to 20 hrs in presence of 10% human serum by microbroth dilution method; type: functional; details: time 18-20 hrs
[8] = system: Acinetobacter baumannii; experiment: Antibacterial activity against Acinetobacter baumannii CLB21655 incubated for 18 to 20 hrs in presence of 50% mouse serum by microbroth dilution method; type: functional; details: time 18-20 hrs
[9] = system: Acinetobacter baumannii; experiment: Antibacterial activity against Acinetobacter baumannii CLB21655 assessed as bacterial growth inhibition incubated for 18 to 20 hrs by microbroth dilution method; type: functional; details: time 18-20 hrs
[10] = system: Acinetobacter baumannii; experiment: Antibacterial activity against Acinetobacter baumannii CLB21655 incubated for 18 to 20 hrs in presence of 50% human serum by microbroth dilution method; type: functional; details: time 18-20 hrs
[11] = system: Acinetobacter baumannii; experiment: Antibacterial activity against Acinetobacter baumannii CLB21655 incubated for 18 to 20 hrs in presence of 10% mouse serum by microbroth dilution method; type: functional; details: time 18-20 hrs
[12] = Cmax in male C57BL/6 mouse at 300 mg/kg, sc administered 3 times a day with 3 hrs interval and measured after 24 hrs by LC-MS/MS analysis; type: ADME, organism-based; details: in vivo
[13] = Cmax in male C57BL/6 mouse at 300 mg/kg, sc administered once in a day and measured after 24 hrs by LC-MS/MS analysis; type: ADME, organism-based; details: in vivo
[14] = AUC (0 to infinity) in male C57BL/6 mouse at 300 mg/kg, sc administered once in a day and measured after 24 hrs by LC-MS/MS analysis; type: ADME, organism-based; details: male, C57BL/6, mouse, in vivo
[15] = AUC (0 to infinity) in male C57BL/6 mouse at 300 mg/kg, sc administered 3 times a day with 3 hrs interval and measured after 24 hrs by LC-MS/MS analysis; type: ADME, organism-based; details: male, C57BL/6, mouse, in vivo
[16] = system: Acinetobacter baumannii; experiment: Antibacterial activity against wild type Acinetobacter baumannii; type: functional
[17] = Lipophilicity, logD of compound at pH 7 by HPLC analysis; type: physicochemical; details: buffer

## Cc1c(S(=O)(=O)Nc2ccc(NC(=O)CCCOc3ccc(NS(=O)(=O)c4cnn(-c5ccc(Cl)cc5)c4C)c(C(=O)O)c3)cc2C(=O)O)cnn1-c1ccc(Cl)cc1
[1]
  MIC95: 0.098 µM (≈ 0.0865 µg/mL)
[2]
  EC50 at 24 h: 0.9 µM
[3]
  MIC95: 1.56 µM
[4]
  Selectivity ratio: 16
[5]
  EC50: < 10 nM

## O=C(CCCOc1ccc(NS(=O)(=O)c2ccc(-c3ccccc3)s2)c(C(=O)O)c1)Nc1ccc(NS(=O)(=O)c2ccc(-c3ccccc3)s2)c(C(=O)O)c1
[1]
  MIC95: 0.012 µM (≈ 0.00982 µg/mL)
[2]
  EC50 at 24 h: > 42 µM
[3]
  MIC95: 3.12 µM
[4]
  Selectivity ratio: 260
[5]
  EC50: < 10 nM

## C[C@@H]1[C@H](Oc2ccc(NS(=O)(=O)c3cnn(-c4ccc(Cl)cc4)c3)c(C(=O)O)c2)CN1Cc1ccc(NS(=O)(=O)c2cnn(-c3ccc(Cl)cc3)c2)c(C(=O)O)c1 (racemic)
[1]
  MIC95: 0.049 µM (≈ 0.0418 µg/mL)
[2]
  EC50 at 24 h: > 42 µM
[6]
  Selectivity ratio: 128
[5]
  EC50: 82 nM
[7]
  MIC95: 6.25 µM

## O=C(O)c1cc(CN2CC(Oc3ccc(NS(=O)(=O)c4ccc(-c5ccc(F)cc5)s4)c(C(=O)O)c3)C2)ccc1NS(=O)(=O)c1cnn(-c2ccc(Cl)cc2)c1
[1]
  MIC95: 0.049 µM (≈ 0.0411 µg/mL)
[2]
  EC50 at 24 h: 37 µM
[6]
  Selectivity ratio: 64
[5]
  EC50: < 10 nM
[7]
  MIC95: 3.12 µM

## O=C(O)c1cc(CNC2CN(Cc3ccc(NS(=O)(=O)c4cnn(-c5ccc(Cl)cc5)c4)c(C(=O)O)c3)C2)ccc1NS(=O)(=O)c1cnn(-c2ccc(Cl)cc2)c1
[1]
  MIC95: 0.391 µM (≈ 0.333 µg/mL)
[2]
  EC50 at 24 h: > 42 µM
[6]
  Selectivity ratio: 8
[5]
  EC50: 887 nM
[7]
  MIC95: 3.12 µM

## O=C(O)c1cc(CN2CC(Oc3ccc(NS(=O)(=O)c4cnn(-c5ccc(F)cc5)c4)c(C(=O)O)c3)C2)ccc1NS(=O)(=O)CCCCCc1ccc(Cl)cc1
[8]
  MIC: 25 µM
[9]
  MIC: 0.024 µM (≈ 0.0198 µg/mL)
[10]
  MIC: 25 µM
[11]
  MIC: 3.12 µM

## O=C(O)c1cc(CN[C@H]2C[C@@H](NCc3ccc(NS(=O)(=O)c4cnn(-c5ccc(Cl)cc5)c4)c(C(=O)O)c3)C2)ccc1NS(=O)(=O)c1cnn(-c2ccc(Cl)cc2)c1
[1]
  MIC95: 0.196 µM (≈ 0.17 µg/mL)
[2]
  EC50 at 24 h: > 42 µM
[6]
  Selectivity ratio: 16
[5]
  EC50: 1290 nM
[7]
  MIC95: 3.12 µM

## O=C(O)c1cc(CN2CC(Oc3ccc(NS(=O)(=O)c4ccc(-c5ccc(F)cc5)s4)c(C(=O)O)c3)C2)ccc1NS(=O)(=O)CCc1ccc(Cl)cc1
[1]
  MIC95: 0.024 µM (≈ 0.0192 µg/mL)
[2]
  EC50 at 24 h: 38.7 µM
[6]
  Selectivity ratio: 130
[5]
  EC50: 5.7 nM
[7]
  MIC95: 3.12 µM

## O=C(O)c1cc(CN2CC(Oc3ccc(NS(=O)(=O)c4cnn(-c5ccc(F)cc5)c4)c(C(=O)O)c3)C2)ccc1NS(=O)(=O)CCCCc1ccc(Cl)cc1
[8]
  MIC: 70.7 µM
[9]
  MIC: 0.078 µM (≈ 0.0634 µg/mL)
[10]
  MIC: 29.7 µM
[11]
  MIC: 3.12 µM

## O=C(O)c1cc(CN2CC(Oc3ccc(NS(=O)(=O)N4CCOC(c5ccc(F)cc5)C4)c(C(=O)O)c3)C2)ccc1NS(=O)(=O)CCCCc1ccc(Cl)cc1 (single isomer, unassigned)
[8]
  MIC: 50 µM
[9]
  MIC: 0.049 µM (≈ 0.0407 µg/mL)
[10]
  MIC: 12.5 µM
[11]
  MIC: 3.12 µM

## CCCCc1ccc(S(=O)(=O)Nc2ccc(OCCCCOc3ccc(NS(=O)(=O)c4ccc(CCCC)cc4)c(C(=O)O)c3)cc2C(=O)O)cc1
[1]
  MIC95: 0.049 µM (≈ 0.0369 µg/mL)
[2]
  EC50 at 24 h: 9.8 µM
[3]
  MIC95: 12.5 µM
[4]
  Selectivity ratio: 255
[5]
  EC50: 5.4 nM

## Cn1nc(-c2ccccc2)cc1S(=O)(=O)Nc1ccc(NC(=O)CCCOc2ccc(NS(=O)(=O)c3cc(-c4ccccc4)nn3C)c(C(=O)O)c2)cc1C(=O)O
[1]
  MIC95: 0.024 µM (≈ 0.0195 µg/mL)
[2]
  EC50 at 24 h: 0.7 µM
[3]
  MIC95: 1.11 µM
[4]
  Selectivity ratio: 46
[5]
  EC50: 3.8 nM

## O=C(CCCOc1ccc(NS(=O)(=O)c2cnn(-c3ccc(Cl)cc3)c2)c(C(=O)O)c1)Nc1ccc(NS(=O)(=O)c2cnn(-c3ccc(Cl)cc3)c2)c(C(=O)O)c1
[1]
  MIC95: 0.062 µM (≈ 0.053 µg/mL)
[2]
  EC50 at 24 h: 22.9 µM
[3]
  MIC95: 1.56 µM
[4]
  Selectivity ratio: 25
[5]
  EC50: < 10 nM

## O=C(CCCOc1ccc(NS(=O)(=O)c2ccc(-c3ccc(C(F)(F)F)cc3)cc2)c(C(=O)O)c1)Nc1ccc(NS(=O)(=O)c2ccc(-c3ccc(C(F)(F)F)cc3)cc2)c(C(=O)O)c1
[1]
  MIC95: 0.391 µM (≈ 0.368 µg/mL)
[12]
  Cmax: 543 µM
[13]
  Cmax: 370 µM
[14]
  AUC(0-inf): 885 µM·h
[2]
  EC50 at 24 h: 11.2 µM
[3]
  MIC95: 3.12 µM
[4]
  Selectivity ratio: 8
[5]
  EC50: < 10 nM
[15]
  AUC(0-inf): 3780 µM·h

## O=C(O)c1cc(CN2CC(Oc3ccc(NS(=O)(=O)c4ccc(-c5ccc(F)cc5)cc4)c(C(=O)O)c3)C2)ccc1NS(=O)(=O)c1cnn(-c2ccc(F)cc2)c1
[1]
  MIC95: 0.049 µM (≈ 0.04 µg/mL)
[2]
  EC50 at 24 h: > 42 µM
[6]
  Selectivity ratio: 64
[5]
  EC50: 17 nM
[7]
  MIC95: 3.12 µM

## O=C(CCCOc1ccc(NS(=O)(=O)c2ccc(Oc3ccc(Cl)cc3)nc2)c(C(=O)O)c1)Nc1ccc(NS(=O)(=O)c2ccc(Oc3ccc(Cl)cc3)nc2)c(C(=O)O)c1
[1]
  MIC95: 0.012 µM (≈ 0.0109 µg/mL)
[2]
  EC50 at 24 h: 36.3 µM
[3]
  MIC95: 3.12 µM
[4]
  Selectivity ratio: 260
[5]
  EC50: 29 nM

## O=C(O)c1cc(CN2CC(Oc3ccc(NS(=O)(=O)N4CCOC(c5ccc(F)cc5)C4)c(C(=O)O)c3)C2)ccc1NS(=O)(=O)CCCc1ccc(F)cc1 (racemic)
[8]
  MIC: > 100 µM
[9]
  MIC: 0.098 µM (≈ 0.0785 µg/mL)
[10]
  MIC: 12.5 µM
[11]
  MIC: 6.25 µM

## O=C(O)c1cc(CN2CC(COc3ccc(NS(=O)(=O)c4cnn(-c5ccc(Cl)cc5)c4)c(C(=O)O)c3)C2)ccc1NS(=O)(=O)c1cnn(-c2ccc(Cl)cc2)c1
[1]
  MIC95: 0.196 µM (≈ 0.167 µg/mL)
[2]
  EC50 at 24 h: > 42 µM
[6]
  Selectivity ratio: 32
[5]
  EC50: 581 nM
[7]
  MIC95: 6.25 µM

## O=C(Nc1sc2c(c1C(=O)O)CCCC2)c1ccc(Cl)cc1
[16]
  MIC: 60 µM (≈ 20.1 µg/mL)

## CCCCc1ccc(S(=O)(=O)Nc2ccc(NC(=O)Nc3ccc(NS(=O)(=O)c4ccc(CCCC)cc4)c(C(=O)O)c3)cc2C(=O)O)cc1
[1]
  MIC95: 2.21 µM (≈ 1.6 µg/mL)
[17]
  logD: 2.3

## O=C(O)c1cc(CN[C@H]2C[C@@H](CNc3ccc(NS(=O)(=O)c4cnn(-c5ccc(Cl)cc5)c4)c(C(=O)O)c3)C2)ccc1NS(=O)(=O)c1cnn(-c2ccc(Cl)cc2)c1
[1]
  MIC95: 0.024 µM (≈ 0.0208 µg/mL)
[2]
  EC50 at 24 h: 32.7 µM
[3]
  MIC95: 0.098 µM
[5]
  EC50: 2380 nM
[7]
  Activity: inactive

## O=C(CCCOc1ccc(NS(=O)(=O)c2ccc(-c3ccc(Cl)cc3)s2)c(C(=O)O)c1)Nc1ccc(NS(=O)(=O)c2ccc(-c3ccc(Cl)cc3)s2)c(C(=O)O)c1
[1]
  MIC95: 0.012 µM (≈ 0.0106 µg/mL)
[2]
  EC50 at 24 h: 3.4 µM
[3]
  MIC95: 2.21 µM
[4]
  Selectivity ratio: 184
[5]
  EC50: < 10 nM

## CCCCc1ccc(S(=O)(=O)Nc2ccc(NC(=O)CCC(=O)Nc3ccc(NS(=O)(=O)c4ccc(CCCC)cc4)c(C(=O)O)c3)cc2CC(=O)O)cc1
[1]
  MIC95: 0.196 µM (≈ 0.155 µg/mL)
[3]
  MIC95: 25 µM
[4]
  Selectivity ratio: 128
[5]
  EC50: 967 nM

## CCCCc1ccc(S(=O)(=O)Nc2ccc(NC(=O)CCC(=O)Nc3ccc(NS(=O)(=O)c4ccc(Oc5ccccc5)nc4)c(C(=O)O)c3)cc2C(=O)O)cc1
[1]
  MIC95: 0.069 µM (≈ 0.0563 µg/mL)
[3]
  MIC95: 4.42 µM
[4]
  Selectivity ratio: 64
[5]
  EC50: 47 nM

## CCCCc1ccc(S(=O)(=O)Nc2ccc(NC(=O)CCC(=O)Nc3ccc(N(C)S(=O)(=O)c4ccc(CCCC)cc4)c(C(=O)O)c3)cc2C(=O)O)cc1
[1]
  MIC95: 1.11 µM (≈ 0.877 µg/mL)
[3]
  MIC95: 50 µM
[4]
  Selectivity ratio: 45
[5]
  EC50: 456 nM

Source: ChEMBL document CHEMBL5584343, “Cerastecin Inhibition of the Lipooligosaccharide Transporter MsbA to Combat Acinetobacter baumannii: From Screening Impurity to In Vivo Efficacy” (J Med Chem, 2024)
